In assay [1] the test system is MCF7 breast cancer cell line. The assay can be described thus: MTT cellular viability assay, MCF7. The assay is classed as cell-based. The conditions noted are these: Homo sapiens, 96 h. The protocol:
The human A2780 ovarian (#93112519) and MCF-7 breast (#86012803) cancer cell lines were obtained from the European Cell Culture Collection (ECACC; Salisbury, UK). The human cardiac ventricular AC16 cell line (#SCC109) was obtained from Merck/Millipore (UK). The A2780 and MCF-7 cell lines were maintained in RPMI-1640 medium and the AC16 cell line was maintained in DMEM/F12 medium. Culture medium of all three cell lines was supplemented with 10% heat-inactivated foetal bovine serum (FBS) and 2 mM L-glutamine, with the cells maintained in a humidified 5% CO2 atmosphere at 37 °C. The media was changed every 72h and the cells passaged via trypsinisation (Trypsin EDTA, 0.25%) before reaching confluency.
Cytotoxicity of each compound against the cell lines was assessed using the MTT assay. Cells were seeded in three replicates into 96-well plates at a density of 2 × 10^3/well for 24h to facilitate cell attachment. Media was replaced with that containing either test compound (0–10µM) for A2780 and MCF7 cell lines, single concentration (10 µM) test compound for AC16 cell line, or drug vehicle (dimethyl sulphoxide; DMSO) and the cells incubated for a further 96 h at 37 °C in a humidified 5% CO2 atmosphere. […] Chemosensitivity was thereafter assessed using a standard 3-[4, 5-dimethylthiazolyl]-2,5-diphenyltetrazolium bromide (MTT) assay, with the optical density determined at 540 nm as an indicator of cellular viability.

Assay [2] concerns HeLa nuclear KDACs. More on the design: method as in Beckers et al.[46]. Conditions: ref Beckers et al.[46]; read-out: HDAC Inhibition IC50; cited from earlier work.
Assay [3] deals with HDAC11 (Homo sapiens, UniProt Q96DB2). Set-up: method as in PMID 32608981. Conditions: read-out: HDAC11 IC50; compiled data, ref [13]; cited from earlier work.
HDAC11, sequence (Q96DB2 whole entry): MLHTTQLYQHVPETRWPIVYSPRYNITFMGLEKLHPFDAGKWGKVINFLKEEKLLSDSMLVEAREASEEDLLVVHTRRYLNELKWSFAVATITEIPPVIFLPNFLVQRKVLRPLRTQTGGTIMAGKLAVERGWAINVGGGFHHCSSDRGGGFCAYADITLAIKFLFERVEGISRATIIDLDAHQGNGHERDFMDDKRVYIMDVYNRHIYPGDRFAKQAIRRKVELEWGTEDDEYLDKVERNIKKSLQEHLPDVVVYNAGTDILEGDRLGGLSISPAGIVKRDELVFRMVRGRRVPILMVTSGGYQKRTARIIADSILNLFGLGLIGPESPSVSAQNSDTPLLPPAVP
Assay [4] has as its system class I HDACs. More on the design: method as in PMID 31938461. The conditions noted are these: ref [91]; cited from earlier work.

A value given as a limit tells only on which side of the number the result lay.

Turning to `CC(=O)Nc1ccc(C(=O)Nc2ccccc2N)cc1` [Compound 2, Tacedinaline], the IC50 was 11.6 ± 1.1 µM in assay [1], 8.5 ± 5.4 µM in assay [2] and greater than 10 µM in assay [3].
As to `Nc1cc(F)ccc1NC(=O)c1ccc(CNC(=O)/C=C/c2cccnc2)cc1` [chidamide], the IC50 in assay [4] was 0.11 to 0.33 µM.

The record behind these values is article PMC12217109, “Development of novel benzamide class I selective lysine deacetylase inhibitors as potent anticancer agents” (Journal of Enzyme Inhibition and Medicinal Chemistry, 2025).
